Where two headings read alike, the source gives them in different places.
Experiments:
Assay in all cases: Kinase binding assay (kinase-tagged T7 phage / qPCR, Ambit Biosciences)
PI3Kα = target: T1, PI3Kα (Homo sapiens, UniProt P42336); details: read-out: inhibitory activity (IC50) against PI3Kα
T1 construct: purchased Ambit Biosciences; host or cells: E. coli BL21-derived host (T7 phage) or HEK-293
Method: (§1) Assays were performed as described in Fabian et al. (2005) Nature Biotechnology, vol. 23, p. 329 and in Karaman et al. (2008) Nature Biotechnology, vol. 26, p. 127.
(§2) Kinase assays. For most assays, kinase-tagged T7 phage strains were grown in parallel in 24-well blocks in an E. coli host derived from the BL21 strain. E. coli were grown to log-phase and infected with T7 phage from a frozen stock (multiplicity of infection ˜0.1) and incubated with shaking at 32° C. until lysis (˜90 minutes). The lysates were centrifuged (6,000×g) and filtered ([…]) to remove cell debris. The remaining kinases were produced in HEK-293 cells and subsequently tagged with DNA for qPCR detection. Streptavidin-coated magnetic beads were treated with biotinylated small molecule ligands for 30 minutes at room temperature to generate affinity resins for kinase assays. The liganded beads were blocked with excess biotin and washed with blocking buffer (SeaBlock (Pierce), 1% BSA, 0.05% Tween 20, 1 mM DTT) to remove unbound ligand and to reduce non-specific phage binding. Binding reactions were assembled by combining kinases, liganded affinity beads, and test compounds in 1× binding buffer (20% SeaBlock, 0.17×PBS, 0.05% Tween 20, 6 mM DTT). Test compounds were prepared as 40× stocks in 100% DMSO and directly diluted into the assay. All reactions were performed in polypropylene 384-well plates in a final volume of 0.04 ml. The assay plates were incubated at room temperature with shaking for 1 hour and the affinity beads were washed with wash buffer (1×PBS, 0.05% Tween 20). The beads were then re-suspended in elution buffer (1×PBS, 0.05% Tween 20, 0.5 mM non-biotinylated affinity ligand) and incubated at room temperature with shaking for 30 minutes. The kinase concentration in the eluates was measured by qPCR.
(§3) Compounds were tested using the above assay at Ambit Biosciences (San Diego, Calif., USA).

PI3Kβ = target: T2, PI3Kβ (Homo sapiens, UniProt P42338); details: read-out: inhibitory activity (IC50) against PI3Kβ
T2 construct: purchased Ambit Biosciences; host or cells: E. coli BL21-derived host (T7 phage) or HEK-293
T2 sequence (P42338 whole entry): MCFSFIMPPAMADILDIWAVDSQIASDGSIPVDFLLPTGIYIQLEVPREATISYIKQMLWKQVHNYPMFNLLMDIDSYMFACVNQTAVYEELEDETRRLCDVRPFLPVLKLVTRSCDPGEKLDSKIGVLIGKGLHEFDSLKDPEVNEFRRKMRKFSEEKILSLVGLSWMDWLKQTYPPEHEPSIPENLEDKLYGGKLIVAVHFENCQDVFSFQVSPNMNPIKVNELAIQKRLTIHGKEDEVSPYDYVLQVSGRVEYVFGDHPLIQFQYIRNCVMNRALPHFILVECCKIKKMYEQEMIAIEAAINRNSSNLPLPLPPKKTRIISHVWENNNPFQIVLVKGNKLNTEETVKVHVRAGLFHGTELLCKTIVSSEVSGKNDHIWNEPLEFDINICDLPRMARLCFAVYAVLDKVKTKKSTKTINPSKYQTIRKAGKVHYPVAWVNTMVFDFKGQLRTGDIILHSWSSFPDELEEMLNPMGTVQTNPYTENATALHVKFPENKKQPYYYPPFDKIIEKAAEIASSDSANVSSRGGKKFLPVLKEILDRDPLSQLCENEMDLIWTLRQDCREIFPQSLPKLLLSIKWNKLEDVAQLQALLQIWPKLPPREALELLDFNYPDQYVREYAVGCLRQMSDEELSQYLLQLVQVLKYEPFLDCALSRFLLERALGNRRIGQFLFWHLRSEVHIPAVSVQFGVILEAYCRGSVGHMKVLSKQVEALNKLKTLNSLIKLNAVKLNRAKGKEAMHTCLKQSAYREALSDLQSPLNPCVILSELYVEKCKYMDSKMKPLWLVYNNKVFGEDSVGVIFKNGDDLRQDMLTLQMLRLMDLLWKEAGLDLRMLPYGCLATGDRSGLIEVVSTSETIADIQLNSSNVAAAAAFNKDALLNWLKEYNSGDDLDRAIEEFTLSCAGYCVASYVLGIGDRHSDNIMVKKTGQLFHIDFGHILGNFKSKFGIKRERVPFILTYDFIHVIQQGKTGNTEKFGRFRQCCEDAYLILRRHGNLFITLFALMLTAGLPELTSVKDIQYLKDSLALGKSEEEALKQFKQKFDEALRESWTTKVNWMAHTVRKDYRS
Method: as §1, §2, §3

PI3Kγ = target: T3, PI3Kγ (Homo sapiens, UniProt P48736); details: read-out: inhibitory activity (IC50) against PI3Kγ
T3 construct: purchased Ambit Biosciences; host or cells: E. coli BL21-derived host (T7 phage) or HEK-293
T3 sequence (P48736 whole entry): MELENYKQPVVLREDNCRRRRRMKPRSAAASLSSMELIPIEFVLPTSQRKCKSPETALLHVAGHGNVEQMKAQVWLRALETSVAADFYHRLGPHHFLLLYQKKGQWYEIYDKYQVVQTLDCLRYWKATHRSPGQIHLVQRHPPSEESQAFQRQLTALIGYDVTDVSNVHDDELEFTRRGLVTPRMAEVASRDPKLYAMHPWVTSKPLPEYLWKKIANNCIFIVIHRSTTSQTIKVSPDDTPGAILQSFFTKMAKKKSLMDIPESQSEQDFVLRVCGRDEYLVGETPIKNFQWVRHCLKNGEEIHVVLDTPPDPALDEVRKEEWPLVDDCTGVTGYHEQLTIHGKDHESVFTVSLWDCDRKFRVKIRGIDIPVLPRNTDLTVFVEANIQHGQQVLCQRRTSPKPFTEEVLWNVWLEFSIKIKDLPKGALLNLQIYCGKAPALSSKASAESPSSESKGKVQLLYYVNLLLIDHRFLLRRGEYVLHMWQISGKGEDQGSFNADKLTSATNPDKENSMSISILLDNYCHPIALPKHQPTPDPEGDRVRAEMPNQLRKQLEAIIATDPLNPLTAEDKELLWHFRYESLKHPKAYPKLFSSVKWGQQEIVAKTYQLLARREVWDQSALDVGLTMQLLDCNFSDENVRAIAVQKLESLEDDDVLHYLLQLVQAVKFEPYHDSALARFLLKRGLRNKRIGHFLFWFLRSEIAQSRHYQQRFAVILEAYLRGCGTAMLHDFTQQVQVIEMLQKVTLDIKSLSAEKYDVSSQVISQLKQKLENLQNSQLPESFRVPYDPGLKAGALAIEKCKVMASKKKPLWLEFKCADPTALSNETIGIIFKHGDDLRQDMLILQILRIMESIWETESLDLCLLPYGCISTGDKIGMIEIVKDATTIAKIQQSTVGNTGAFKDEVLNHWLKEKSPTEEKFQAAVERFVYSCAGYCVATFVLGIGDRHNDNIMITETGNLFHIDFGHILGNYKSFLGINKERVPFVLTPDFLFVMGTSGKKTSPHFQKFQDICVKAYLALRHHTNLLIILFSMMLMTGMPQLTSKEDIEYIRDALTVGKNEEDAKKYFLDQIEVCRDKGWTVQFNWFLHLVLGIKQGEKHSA
Method: as §1, §2, §3

PI3Kδ = target: T4, PI3Kδ (Homo sapiens, UniProt O00329)
T4 construct: purchased Ambit Biosciences; host or cells: E. coli BL21-derived host (T7 phage) or HEK-293
T4 sequence (O00329 1-1044): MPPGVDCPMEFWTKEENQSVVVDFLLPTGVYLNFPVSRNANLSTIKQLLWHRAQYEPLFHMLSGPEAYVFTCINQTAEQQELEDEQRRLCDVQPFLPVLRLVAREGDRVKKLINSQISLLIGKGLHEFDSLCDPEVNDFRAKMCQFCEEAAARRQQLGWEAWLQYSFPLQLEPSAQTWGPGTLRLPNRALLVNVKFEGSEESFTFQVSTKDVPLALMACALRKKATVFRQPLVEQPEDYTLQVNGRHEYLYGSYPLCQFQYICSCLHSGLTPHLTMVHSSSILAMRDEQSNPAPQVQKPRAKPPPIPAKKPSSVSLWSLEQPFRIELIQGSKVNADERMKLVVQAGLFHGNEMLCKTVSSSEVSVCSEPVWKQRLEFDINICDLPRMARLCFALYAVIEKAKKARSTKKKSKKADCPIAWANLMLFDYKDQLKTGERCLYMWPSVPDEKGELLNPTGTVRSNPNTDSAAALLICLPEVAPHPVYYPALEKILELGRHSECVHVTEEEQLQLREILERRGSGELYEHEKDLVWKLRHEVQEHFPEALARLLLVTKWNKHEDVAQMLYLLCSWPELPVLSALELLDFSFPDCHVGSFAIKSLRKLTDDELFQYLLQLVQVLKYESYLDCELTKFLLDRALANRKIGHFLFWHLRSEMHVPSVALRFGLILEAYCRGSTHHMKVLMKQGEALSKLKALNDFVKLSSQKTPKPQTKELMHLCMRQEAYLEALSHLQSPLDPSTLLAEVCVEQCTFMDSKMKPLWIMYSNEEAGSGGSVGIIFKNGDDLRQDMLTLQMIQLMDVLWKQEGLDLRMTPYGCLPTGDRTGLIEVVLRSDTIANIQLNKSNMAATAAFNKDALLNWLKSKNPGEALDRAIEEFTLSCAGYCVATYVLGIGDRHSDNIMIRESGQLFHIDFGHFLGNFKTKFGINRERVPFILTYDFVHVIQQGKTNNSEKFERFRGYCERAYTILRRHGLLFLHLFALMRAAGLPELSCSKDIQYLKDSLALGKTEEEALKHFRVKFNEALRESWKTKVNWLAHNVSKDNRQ
Method: as §1, §2, §3

mTOR = target: T5, mTOR (Homo sapiens, UniProt P42345); details: read-out: inhibitory activity (IC50) against mTOR
T5 construct: purchased Ambit Biosciences; host or cells: E. coli BL21-derived host (T7 phage) or HEK-293
Method: as §1, §2, §3

T1 sequence (P42336 whole entry): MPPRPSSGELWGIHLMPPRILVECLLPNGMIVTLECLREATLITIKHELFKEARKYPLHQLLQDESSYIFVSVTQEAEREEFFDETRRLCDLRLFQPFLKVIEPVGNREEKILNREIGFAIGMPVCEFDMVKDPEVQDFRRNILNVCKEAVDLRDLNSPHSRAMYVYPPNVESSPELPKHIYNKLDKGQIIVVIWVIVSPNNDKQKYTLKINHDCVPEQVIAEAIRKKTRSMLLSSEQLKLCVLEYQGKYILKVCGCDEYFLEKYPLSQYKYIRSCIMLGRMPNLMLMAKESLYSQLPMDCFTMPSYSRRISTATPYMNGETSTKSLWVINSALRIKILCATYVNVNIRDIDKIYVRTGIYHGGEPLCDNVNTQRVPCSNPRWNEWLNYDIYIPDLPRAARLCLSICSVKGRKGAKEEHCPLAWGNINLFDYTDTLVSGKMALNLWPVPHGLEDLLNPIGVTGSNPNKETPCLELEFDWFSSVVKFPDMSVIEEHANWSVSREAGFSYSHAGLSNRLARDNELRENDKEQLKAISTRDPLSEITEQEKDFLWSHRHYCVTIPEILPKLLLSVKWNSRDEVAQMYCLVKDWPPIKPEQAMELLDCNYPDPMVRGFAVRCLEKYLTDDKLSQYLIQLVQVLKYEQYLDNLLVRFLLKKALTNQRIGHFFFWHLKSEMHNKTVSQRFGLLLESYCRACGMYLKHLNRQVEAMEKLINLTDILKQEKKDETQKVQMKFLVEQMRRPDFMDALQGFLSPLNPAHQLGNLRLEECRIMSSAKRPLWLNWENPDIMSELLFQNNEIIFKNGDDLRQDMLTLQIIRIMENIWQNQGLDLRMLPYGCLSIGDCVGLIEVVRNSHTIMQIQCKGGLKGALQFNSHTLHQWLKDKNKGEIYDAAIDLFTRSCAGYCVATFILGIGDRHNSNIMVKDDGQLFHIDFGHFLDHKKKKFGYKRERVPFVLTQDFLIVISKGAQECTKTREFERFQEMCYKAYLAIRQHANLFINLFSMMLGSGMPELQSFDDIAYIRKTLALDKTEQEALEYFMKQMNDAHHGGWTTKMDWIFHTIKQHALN

Compound: OCCn1cnc2c(-n3c(C(F)F)nc4ccccc43)nc(N3CCOCC3)nc21 [Example 2, 2-{6-[2-(difluoromethyl)benzimidazol-1-yl]-2-morpholin-4-ylpurin-9-yl}ethan-1-ol]
- IC50 (PI3Kα): > 0.1 µM
- IC50 (PI3Kβ): > 0.1 µM
- IC50 (PI3Kγ): > 0.1 µM
- IC50 (PI3Kδ): < 0.1 µM
- IC50 (mTOR): > 0.1 µM

Compound: Cc1nc2ccccc2n1-c1nc(N2CCOCC2)nc2c1ncn2CCO [Example 2d, reference compound]
- inhibition against PI3Kδ (PI3Kδ; at up to 100 nM): did not show significant inhibition

Compound: COc1cccc2c1nc(C(F)F)n2-c1nc(N2CCOCC2)nc2c1ncn2C1CCOCC1 [Example 21, 1-(9-(2H-3,4,5,6-tetrahydropyran-4-yl)-2-morpholin-4-ylpurin-6-yl)-2-(difluoromethyl)-4-methoxybenzimidazole]
- IC50 (PI3Kα): < 0.1 µM
- IC50 (PI3Kγ): < 0.1 µM
- IC50 (PI3Kδ; read-out: IC50, inhibition against PI3Kδ): < 0.1 µM
